“Also recorded” adds a separate entry of the source.
Experiments:
[1] = tested on: Abeta oligomer-induced acceleration of exocytosis (membrane trafficking) in primary neurons; test: Exocytosis / MTT membrane trafficking assay in mature primary neurons treated with Abeta oligomers; assay type: cell-based, Sprague-Dawley rat; settings: for block of Abeta oligomer effects on membrane trafficking (in words): primary neurons in vitro; for efficacy relative to the parent CT0093 (in words) / potency relative to the parent CT0093 (in words): 21DIV primary neurons
Protocol: Primary neurons from E18 Sprague-Dawley rat embryos are plated at optimized concentrations in 384 well plates in NB media (Invitrogen). Neurons are maintained in cultures for 3 weeks, with twice weekly feeding of NB media with N2 supplement (Invitrogen). A test compound is added to cells, followed by addition of Vehicle or Abeta oligomer preparations (1.5 μM), and incubated for 1 to 24 hr. at 37° C. in 5% CO2. MTT reagent (3-(4,5-dimethylthizaol-2-yl)-2,5diphenyl tetrazolium bromide) (Roche Molecular Biochemicals) is reconstituted in phosphate buffered saline to 5 mg/mL. 10 μL of MTT labeling reagent is added to each well and incubated at 37° C. for 1 h, then imaged.
Each assay plate is formatted so that compounds are tested with and without Abeta on each plate.
Similar procedures for exocytosis assays/MTT assays can be found in the literature. See e.g., Liu Y, et. al., Detecting bioactive amyloid beta peptide species in Alzheimer's disease. J. Neurochem. 2004 November; 91(3):648-56; Liu Y, and Schubert D. “Cytotoxic amyloid peptides inhibit cellular 3-(4,5-dimethylthiazol-2-yl)-2,5-diphenyltetrazolium bromide (MTT) reduction by enhancing MTT formazan exocytosis.” J. Neurochem. 1997 December; 69(6):2285-93; and Liu Y, and Schubert D. “Treating Alzheimer's disease by inactivating bioactive amyloid beta peptide” Curr. Alzheimer Res. 2006 April; 3(2):129-35. Abeta 1-42 oligomers made according to published methods [See e.g. Dahlgren et al., “Oligomeric and fibrillar species of amyloid-beta peptides differentially affect neuronal viability” J Biol. Chem. 2002 Aug. 30; 277(35):32046-53. Epub 2002 Jun. 10. LeVine H 3rd. “Alzheimer's beta-peptide oligomer formation at physiologic concentrations” Anal Biochem. 2004 Dec. 1; 335(1):81-90; Shrestha et. al, “Amyloid beta peptide adversely affects spine number and motility in hippocampal neurons” Mol Cell Neurosci. 2006 November; 33(3):274-82. Epub 2006 Sep. 8; Puzzo et al., “Amyloid-beta peptide inhibits activation of the nitric oxide/cGMP/cAMP-responsive element-binding protein pathway during hippocampal synaptic plasticity” J. Neurosci. 2005 Jul. 20; 25(29):6887-97; Barghorn et al., “Globular amyloid beta-peptide oligomer—a homogenous and stable neuropathological protein in Alzheimer's disease” J. Neurochem. 2005 November; 95(3):834-47. Epub 2005 Aug. 31; Johansson et al., Physiochemical characterization of the Alzheimer's disease-related peptides A beta 1-42 Arctic and A beta 1-42 wt. […] Negative controls include vehicle-treated neurons as well as neurons treated with 28 μM concentrations of memantine. […] These controls, on each plate, serve as normalization tools to calibrate assay performance on a plate-by-plate basis.
Primary neuronal cultures are prepared as follows: Optimal cell density of primary neuronal cultures is determined based on cellular response to Abeta oligomers using the exocytosis assay as a readout, and immunohistochemical analysis of the relative proportion of glia to neurons in the cultures. Cultures are monitored on a weekly basis with immunohistochemistry and image processing-based quantification to monitor the percentage of the cultures that are neurons vs. glia (Glial cells). Cultures containing more than 20% glia (positive for GFAP) vs. neurons (staining positively with antibodies directed against MAP2) at the screening age of 21 days in vitro (21 DIV) are rejected.
Toxicity is monitored in each image-based assay via quantification of nuclear morphology visualized with the DNA binding dye DAPI (Invitrogen). Nuclei that are fragmented are considered to be in late stage apoptosis (Majno and Joris '95). Peptide lots producing unusual peptide size ranges or significant toxicity at a standard 1.5 uM concentration on neurons are rejected.

[2] = tested on: Abeta oligomer effects on memory; test: Fear conditioning assay (contextual memory, Abeta oligomer administration); assay type: in vivo, mice
Protocol: CT0109 and CT0093 were tested in an animal model of a memory-dependent behavioral task known as fear conditioning. The study protocol was designed based on published protocols (See e.g. Puzzo D, Privitera L, Leznik E, Fa M, Staniszewski A, Palmeri A, Arancio O. Picomolar amyloid-beta positively modulates synaptic plasticity and memory in hippocampus. J Neurosci. 2008 Dec. 31; 28(53):14537-45.). The formation of contextual memories is dependent upon the integrity of medial temporal lobe structures such as the hippocampus. In this assay mice were trained to remember that a particular salient context (conditioned stimulus; CS) is associated with an aversive event, in this case a mild foot shock (the unconditioned stimulus, US). Animals that show good learning will express an increase in freezing behavior when placed back into the same context. This freezing is absent in a novel context. Increased freezing in the context indicates strong hippocampal-dependent memory formation in animals. Memory tested in Fear Conditioning is sensitive to elevations of soluble Aβ. […] The fear condition model for memory was performed as described herein.

[3] = tested on: 9 month old male Swe/Ldn mice; test: Behavioral efficacy in transgenic Swe/Ldn mice (osmotic minipump); assay type: in vivo; settings: transgenic mouse model of AD
Protocol: CT0093 was tested for its ability to reverse deficits in 9 month old male Swe/Ldn mice in a pilot study at 1 and 10 mg/kg/day via the osmotic minipump method.
Subcutaneous administration of 10 mg/kg/day of CT0093 (shown in gray squares and solid gray line and solid bar) achieved brain concentrations of 540 nM (FIG. 9).

[4] = tested on: Abeta oligomer-induced synapse loss; test: Abeta oligomer-induced synapse loss in vitro; assay type: cell-based
in vivo = settings: rat, 1 mg/kg
Protocol: PK studies are performed at CEREP Inc. of Redmond Wash., according to their standard protocols: The plasma samples were processed using acetonitrile precipitation and analyzed by HPLC-MS or HPLC-MS/MS. Peak areas were recorded, and the concentrations of the test compound in the unknown plasma samples were determined using the respective calibration curve. The reportable linear range of the assay was determined, along with the lower limit of quantitation (LLQ).
Pharmacokinetic studies were performed according to the following protocols: The plasma samples were processed using acetonitrile precipitation and analyzed by HPLC-MS or HPLC-MS/MS. Peak areas were recorded, and the concentrations of the test compound in the unknown plasma samples were determined using the respective calibration curve. The reportable linear range of the assay was determined, along with the lower limit of quantitation (LLQ).

Structure (SMILES): COc1cc(CCC(C)NCc2ccc(C(F)(F)F)cc2)ccc1O (stereo not drawn) [CT0109, 4-(3-(4-(trifluoromethyl)benzylamino)butyl)-2-methoxyphenol]
- EC50 ([1]; Rattus norvegicus, Primary neuron, MTT assay, primary neurons, read-out: EC50, block of Abeta oligomer-induced acceleration of exocytosis / oligomer effects on membrane trafficking): 7 µM
- block of Abeta oligomer effects on membrane trafficking (in words) [1]: effective in both prevention; also recorded: effective at stopping Abeta oligomer mediated effects on membrane trafficking
- pharmacological competition with Abeta oligomers ([1]; synthetic and human Alzheimer's patient-derived oligomers): exhibit pharmacological competition with both synthetic (A, B) and human Alzheimer's patient-derived (C, D) oligomers
- block of Abeta oligomer effects on memory ([2]; 2 pmol dose, given prior to Abeta oligomers (200 nM), mice): blocked oligomer effects on memory; also recorded: completely blocked the effect of Abeta on memory
- adverse behavioral changes ([2]; any dose): No adverse behavioral changes were observed
- effect of compound alone on memory ([2]; without Abeta): No effect of compound alone was observed
- improvement of memory / cognitive performance of transgenic mice [3]: capable of improving cognitive performance in the transgenic model of AD; also recorded: improve memory deficits in a transgenic mouse model of Alzheimer's disease
- block of Abeta oligomer-induced synapse loss [4]: inhibition of processed product of amyloid precursor protein-mediated synapse loss

Structure (SMILES): CC1=CC=C(C(C)CC(CC(C)(C)O)NCC(C)C)CC1 (stereo not drawn) [CT1296, 4-(isobutylamino)-2-methyl-6-(4-methylcyclohexa-1,3-dienyl)heptan-2-ol]
- efficacy relative to the parent CT0093 (in words) [1]: somewhat less efficacious
- potency relative to the parent CT0093 (in words) [1]: maintained the potency of the parent compound
- efficacy relative to the parent CT0093 (in words) ([1]; listed as CT01296): slightly less efficacious
- clearance (in vivo): 120 ± 13 mL/min/kg
- half-life (in vivo): 1.15 ± 0.0833 h

Structure (SMILES): Cc1ccc(C(C)CC(CC(C)(C)O)NCC(C)C)cc1 (stereo not drawn) [CT1297, 4-(isobutylamino)-2-methyl-6-p-tolylheptan-2-ol]
- potency relative to the parent CT0093 (in words) [1]: significantly less potent than the parent CT0093
- fold less potent than the parent CT0093 ([1]; primary screening assay): ~2 fold
- clearance (in vivo): 101 ± 12 mL/min/kg
- half-life (in vivo): 2.68 ± 1.62 h

Structure (SMILES): C[C@]12N[C@H](Cc3ccccc31)c1ccccc12 [MK-801, reference compound]
- block of Abeta oligomer effects on membrane trafficking (in words) [1]: none were active

Structure (SMILES): C[N+](C)(C)CCCCCC[N+](C)(C)C [hexamethonium bromide, reference compound]
- block of Abeta oligomer effects on membrane trafficking (in words) [1]: none were active

Structure (SMILES): CC12CC3CC(C)(C1)CC(N)(C3)C2 [memantine, reference compound]
- inhibition at 28 µM ([1]; Rattus norvegicus, Primary neuron, 28 μM memantine, plate control, read-out: inhibition of oligomer effects): 50%

Structure (SMILES): O[C@H]1[C@H](O)[C@@H](O)[C@H](O)[C@@H](O)[C@@H]1O [scyllo-inositol (AZD-103), scyllo-inositol, reference compound]
- block of Abeta oligomer effects on membrane trafficking (in words) [1]: none were active

From patent publication US9499462B2, “Isolated compounds from turmeric oil and methods of use” (Cognition Therapeutics, Inc., priority 2011, dated 2016)
